The source of these data is US20260174757A1, “COMPOSITIONS AND METHODS FOR TREATING PULMONARY ARTERIAL HYPERTENSION” (Inhibikase Therapeutics, Inc., priority 2024, published 2026).

Counter-ions that a name gives are not always drawn. Like-named read-outs stand apart in the source and are kept apart here.

As a reminder, the NOAEL is the highest dose or exposure tested at which no adverse effect was seen. By CL/F is commonly meant the apparent clearance, not corrected for the fraction that reaches the circulation. In general, Cmax refers to the peak of the concentration-time curve. What is called Tmax is the time at which the peak concentration occurs.

Series [1] can be described thus: Comparative toxicology in non-human primate (NOAEL). The conditions noted are these: cynomolgus macaque, in vivo; 28-day GLP toxicology study in cynomolgus macaques; read-out: No Adverse Effect Level (NOAEL). The text has this:
The compound of formula (I) was originally developed to address on-dosing side effects of imatinib therapy. In particular, up to 50% of imatinib patients experience persistent Grade 2 or less gastrointestinal (GI) adverse events during treatment for blood or stomach cancers, and during the previous imatinib trials, up to ⅓ of participants experienced these GI events including 3% of participants experiencing SAEs due to GI disturbance. The compound of formula (I) was developed specifically to reduce these events with the expectations that improvement in other off-target or unintended side effects of this therapy could follow. To illustrate the potential of the compound of formula (I) to minimize GI disturbance, the compound was evaluated in comparative toxicology experiments in non-human primate (NHP).

The conditions of series [2]: human, in vivo. The text has this:
Additionally, the clinical pharmacokinetics for each cohort of healthy subjects studied for the compound of formula (I) using the designs were summarized.

The conditions of series [3]: imatinib mesylate in NHP, Q.D.; from NDA 21-335; cited from earlier work.
For series [4] the following is noted: steady state, Day 91, NOAEL 15 mg/kg, from NDA 21-335, cited from earlier work.

On to `CCC(C)OC(=O)OC[N+]1(C)CCN(Cc2ccc(C(=O)Nc3ccc(C)c(Nc4nccc(-c5cccnc5)n4)c3)cc2)CC1` (stereo not shown) [IkT-001Pro], for which the NOAEL at 28 day in series [1] came to 75 mg/kg. In addition, the “dose dependence of single dose Cmax and AUC0-inf” value in series [2] is “increased linearly with dose”. Also, in series [2] (300 mg), the AUC0-last came to 17820 ng·h/mL, the CL/F was 14.03 L/h, the Cmax was 926.1 ng/mL and the Tmax was 5.33 h. The same compound gave a Vz/F in series [2] (300 mg) of 331.4 L. For the same compound, in series [2] (400 mg), the AUC0-last was 30100 ng·h/mL, the CL/F came out at 10.82 L/h, the Cmax amounted to 1563 ng/mL and the Tmax was 5.75 h. In series [2] (400 mg), this compound registered a Vz/F of 247.5 L. Moreover, in series [2] (500 mg), the AUC0-last stood at 38440 ng·h/mL, the CL/F was found to be 11.29 L/h, the Cmax is reported as 1836 ng/mL and the time to peak (Tmax) was 5.75 h. Also, the Vz/F in series [2] (500 mg) turned out to be 303.8 L. In series [2] (600 mg), the “AUC0-inf LSM (plasma imatinib)” value turned out to be 41202.597, the “AUC0-last LSM (plasma imatinib)” value is on record as 40456.384 and the “Cmax LSM (plasma imatinib)” value amounted to 1939.51. Further, in series [2] (800 mg), the “AUC0-inf LSM” value was determined as 50840.298, the AUC0-last was found to be 51430 ng·h/mL, the “AUC0-last LSM” value is 50220.802 and the CL/F came to 12.8 L/h. In addition, in series [2] (800 mg), the Cmax is reported as 2467 ng/mL, the “Cmax LSM” value was 2409.131, the Tmax came out at 5.5 h and the Vz/F amounted to 272 L.

As to `Cc1ccc(NC(=O)c2ccc(CN3CCN(C)CC3)cc2)cc1Nc1nccc(-c2cccnc2)n1` [Imatinib mesylate, imatinib mesylate], the “No Adverse Effect Level (NOAEL)” value in series [3] is 15 mg/kg. In addition, the “AUC0-last (mean)” value was 1960 ng·h/mL in series [4] (female) and 1540 ng·h/mL in series [4] (male).
